According to ChEMBL document CHEMBL1201862, “PubChem BioAssay data set” (2004):
The source made the active and inactive calls.

Key:
[1] = target: T1, Rac GTPase-activating protein 1 (Homo sapiens, UniProt Q9H0H5); test: MgcRacGAP GTPase-activating activity inhibitors, confirmation, biochemical, ADP Hunter fluorescence, primary and confirmatory (AID 624330); format: functional
T1 sequence (Q9H0H5 whole entry): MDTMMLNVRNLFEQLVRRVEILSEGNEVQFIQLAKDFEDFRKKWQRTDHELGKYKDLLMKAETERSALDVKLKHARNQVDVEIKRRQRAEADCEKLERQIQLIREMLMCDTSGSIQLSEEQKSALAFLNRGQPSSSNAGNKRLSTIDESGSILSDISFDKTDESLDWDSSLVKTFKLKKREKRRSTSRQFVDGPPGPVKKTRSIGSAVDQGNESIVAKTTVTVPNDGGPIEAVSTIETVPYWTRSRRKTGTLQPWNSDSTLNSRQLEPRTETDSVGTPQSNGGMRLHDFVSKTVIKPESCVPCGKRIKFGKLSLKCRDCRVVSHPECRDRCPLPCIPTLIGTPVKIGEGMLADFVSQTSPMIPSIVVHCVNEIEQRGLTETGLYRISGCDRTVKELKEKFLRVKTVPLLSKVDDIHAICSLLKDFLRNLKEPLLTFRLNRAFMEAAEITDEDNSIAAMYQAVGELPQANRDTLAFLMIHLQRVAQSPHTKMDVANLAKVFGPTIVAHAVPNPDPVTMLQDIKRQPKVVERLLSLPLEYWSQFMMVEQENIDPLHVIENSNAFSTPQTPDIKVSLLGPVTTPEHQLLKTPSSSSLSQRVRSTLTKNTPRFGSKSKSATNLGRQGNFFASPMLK

[2] = HeLa cell cytotoxicity, dose response, cytotoxicity control for MgcRacGAP inhibitor project (AID 624300); format: functional
[3] = inhibitors of HIV Env-driven cell fusion, dose response, cherry-pick (AID 652057); format: functional, cell-based
[4] = inhibitors of clade B AD8 Env fusion, dose response, cell-based, cherry-pick (AID 652062); format: functional;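 further: luciferase signal from cell-cell fusion driven by HIV-1 clade B AD8 Env; potency is for inhibitors of fusion seen as a drop in luminescence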
[5] = off-target signal loss in HeLa-CEM21 co-culture – HeLa F-luc CTL cells, cherry-picked, counter-screen for HIV-1 Env fusion inhibitor project, dose response (AID 652040); format: functional, cell-based;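 further: potency for signal decrease marking cytotoxic or nonspecific inhibition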
[6] = target: FAD-linked sulfhydryl oxidase ALR (Homo sapiens, UniProt P55789); test: inhibitors of human ALR sulfhydryl oxidase, dose response, biochemical, H2O2 detection, luminescence, cherry-pick (AID 493248)
[7] = ZM109 Env clade C HIV-1 fusion inhibitors, dose response, HeLa effector, CEM target cells, luciferase, cherry-pick (AID 652058); format: functional, cell-based
BJ [8] = test: cytotoxicity toward BJ-TERT-LT-ST fibroblasts, dose response, cell-based, RAS-independent, luminescence (AID 1935); format: functional; conditions: Homo sapiens;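 further: BJ fibroblasts immortalized with TERT plus LT and ST oncogenes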
BJ [9] = test: cytotoxicity toward BJ-TERT fibroblasts, dose response, cell-based, RAS-independent, luminescence (AID 1933); format: functional; conditions: Homo sapiens
BJ [10] = test: cells; format: functional, cell-based; conditions: Homo sapiens
[11] = cytotoxicity toward DRD oncogenic fibroblasts, dose response, cell-based, non-viral oncogenic, luminescence (AID 1934); format: functional; conditions: Homo sapiens
[12] = Luminescence Cell-Based Dose Response HTS to Identify Activators of Luciferase Translation or Activity in H4 […] Cells. [Related pubchem assays: 1829 (Project Summary), 1814 (Primary HTS)]; format: functional
[13] = A549 cell cytotoxicity, dose response, cytotoxicity control, plate reader, cherry-pick, antagonist series (AID 743412); format: functional, cell-based
[14] = cytotoxicity toward NIH3T3 fibroblasts, dose response, counter-screen, cell-based, ATP luminescence, mouse fibroblasts (AID 2010); format: functional;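 further: cells exposed to compound for about 90 hours before reading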
[15] = HepG2 cell cytotoxicity, dose response, cytotoxicity control, plate reader, cherry-pick, antagonist series (AID 743416); format: functional, cell-based
[16] = MC4R antagonists, dose response, counter-screen for LGR2 antagonist project, cell-based, plate reader, cherry pick (AID 743444); format: functional;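 further: transfected HEK 293 cells stimulated with alpha-MSH peptide; potency of inhibitors of the alpha-MSH evoked signal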
Protein RecA = target: T2, Protein RecA (Mycobacterium tuberculosis, UniProt P9WHJ3); test: Fluorescence Cell-Free Homogeneous Dose Retest to Identify Inhibitors of RecA-Intein Splicing Activity. [Related pubchem assays (depositor defined):AID2097, AID2223, AID489010, AID492950]; format: functional
T2 sequence (P9WHJ3 whole entry): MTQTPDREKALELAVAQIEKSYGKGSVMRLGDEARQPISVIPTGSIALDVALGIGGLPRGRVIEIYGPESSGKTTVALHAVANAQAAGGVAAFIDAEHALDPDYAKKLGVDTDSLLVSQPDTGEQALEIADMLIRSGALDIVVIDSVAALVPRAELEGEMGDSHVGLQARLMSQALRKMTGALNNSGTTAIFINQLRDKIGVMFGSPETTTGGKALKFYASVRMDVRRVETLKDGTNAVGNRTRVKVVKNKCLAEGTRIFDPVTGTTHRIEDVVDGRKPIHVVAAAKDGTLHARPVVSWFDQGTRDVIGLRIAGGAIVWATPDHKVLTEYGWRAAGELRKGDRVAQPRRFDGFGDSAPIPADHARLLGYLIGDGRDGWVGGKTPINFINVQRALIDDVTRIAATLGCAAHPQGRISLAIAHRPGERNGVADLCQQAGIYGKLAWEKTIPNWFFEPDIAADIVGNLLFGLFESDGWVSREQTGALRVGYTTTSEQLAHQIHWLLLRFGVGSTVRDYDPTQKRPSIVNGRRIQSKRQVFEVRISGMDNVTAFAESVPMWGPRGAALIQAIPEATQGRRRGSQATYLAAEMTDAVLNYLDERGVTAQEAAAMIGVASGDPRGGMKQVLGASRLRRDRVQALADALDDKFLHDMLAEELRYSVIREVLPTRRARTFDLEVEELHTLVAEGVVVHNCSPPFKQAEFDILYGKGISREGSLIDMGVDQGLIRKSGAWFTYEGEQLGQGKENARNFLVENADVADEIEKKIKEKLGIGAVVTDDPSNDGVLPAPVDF

[17] = inhibitors of PGC1a acetylation in cells, dose response, cell-based, cherry-picked samples (AID 720514); format: functional;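 further: potency may reflect raised or lowered acetylation signal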
[18] = HEK293 cell cytotoxicity, dose response, cytotoxicity control, plate reader, cherry-picked samples (AID 743446); format: functional, cell-based
[19] = Luminescence Cell-Based Dose Confirmation HTS to Identify Activators of 5'UTR Stem-Loop Driven Alpha-Synuclein mRNA Translation in H4 Neuroglioblastoma Cells. [Related pubchem assays: 1829 (Project Summary), 1814 (Primary HTS)]; format: functional
[20] = LGR2 antagonists, dose response, cell-based, HEK293, CRE-luciferase reporter, cherry pick, set 2 (AID 743343); format: functional;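 further: transfected cells were stimulated with diluted bursicon conditioned medium after compound addition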
[21] = target: T3, Replicative DNA helicase DnaB (Mycobacterium tuberculosis, UniProt P9WMR3); test: DnaB intein splicing inhibitors, dose response, biochemical, cell-free fluorescence (AID 449749); format: functional
T3 sequence (P9WMR3 whole entry): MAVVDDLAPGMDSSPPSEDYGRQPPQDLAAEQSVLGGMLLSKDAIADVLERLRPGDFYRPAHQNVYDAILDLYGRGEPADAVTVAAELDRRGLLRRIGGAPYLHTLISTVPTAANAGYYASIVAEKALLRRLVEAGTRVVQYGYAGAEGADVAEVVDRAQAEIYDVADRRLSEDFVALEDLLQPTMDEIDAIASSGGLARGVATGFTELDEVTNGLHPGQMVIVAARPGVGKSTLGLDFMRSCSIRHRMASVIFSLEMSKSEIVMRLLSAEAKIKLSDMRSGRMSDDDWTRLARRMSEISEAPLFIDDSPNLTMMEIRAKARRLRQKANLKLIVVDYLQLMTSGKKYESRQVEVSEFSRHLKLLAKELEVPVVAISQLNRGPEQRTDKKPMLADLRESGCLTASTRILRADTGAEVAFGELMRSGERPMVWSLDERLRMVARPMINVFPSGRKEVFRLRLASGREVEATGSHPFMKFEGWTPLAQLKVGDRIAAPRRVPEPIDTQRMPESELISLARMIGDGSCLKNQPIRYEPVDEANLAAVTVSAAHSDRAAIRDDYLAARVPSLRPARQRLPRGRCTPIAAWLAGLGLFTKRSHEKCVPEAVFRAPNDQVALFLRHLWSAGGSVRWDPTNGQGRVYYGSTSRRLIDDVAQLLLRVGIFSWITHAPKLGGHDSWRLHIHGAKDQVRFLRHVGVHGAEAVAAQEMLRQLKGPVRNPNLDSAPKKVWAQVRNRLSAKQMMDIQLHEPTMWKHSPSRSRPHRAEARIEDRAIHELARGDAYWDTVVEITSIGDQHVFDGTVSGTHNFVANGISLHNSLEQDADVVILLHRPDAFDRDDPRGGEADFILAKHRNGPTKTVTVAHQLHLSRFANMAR

H4 = test: Luminescence Cell-Based Dose Response HTS to Identify Activators of 5'UTR Stem-Loop Driven Prion Protein mRNA Translation in H4 Neuroglioblastoma Cells. [Related pubchem assays: 1829 (Project Summary), 1814 (Primary HTS)]; format: functional; conditions: Homo sapiens
[22] = inhibitors of intracellular T. cruzi replication, confirmation, NIH3T3 host cells, beta-gal luminescence (AID 2044); format: functional, cell-based;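 further: intracellular parasites grown in NIH/3T3 mouse fibroblasts as host cells; luminescent beta-galactosidase reporter signal from transgenic T. cruzi replicating inside host cells; inhibitors lower the luminescence signal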
[23] = target: T4, DNA repair and recombination protein RAD54-like (Homo sapiens, UniProt Q92698); test: inhibitors of human RAD54 branch migration, confirmation, biochemical, fluorescence, cherry-picked samples, dose series (AID 651657); format: functional
T4 sequence (Q92698 whole entry): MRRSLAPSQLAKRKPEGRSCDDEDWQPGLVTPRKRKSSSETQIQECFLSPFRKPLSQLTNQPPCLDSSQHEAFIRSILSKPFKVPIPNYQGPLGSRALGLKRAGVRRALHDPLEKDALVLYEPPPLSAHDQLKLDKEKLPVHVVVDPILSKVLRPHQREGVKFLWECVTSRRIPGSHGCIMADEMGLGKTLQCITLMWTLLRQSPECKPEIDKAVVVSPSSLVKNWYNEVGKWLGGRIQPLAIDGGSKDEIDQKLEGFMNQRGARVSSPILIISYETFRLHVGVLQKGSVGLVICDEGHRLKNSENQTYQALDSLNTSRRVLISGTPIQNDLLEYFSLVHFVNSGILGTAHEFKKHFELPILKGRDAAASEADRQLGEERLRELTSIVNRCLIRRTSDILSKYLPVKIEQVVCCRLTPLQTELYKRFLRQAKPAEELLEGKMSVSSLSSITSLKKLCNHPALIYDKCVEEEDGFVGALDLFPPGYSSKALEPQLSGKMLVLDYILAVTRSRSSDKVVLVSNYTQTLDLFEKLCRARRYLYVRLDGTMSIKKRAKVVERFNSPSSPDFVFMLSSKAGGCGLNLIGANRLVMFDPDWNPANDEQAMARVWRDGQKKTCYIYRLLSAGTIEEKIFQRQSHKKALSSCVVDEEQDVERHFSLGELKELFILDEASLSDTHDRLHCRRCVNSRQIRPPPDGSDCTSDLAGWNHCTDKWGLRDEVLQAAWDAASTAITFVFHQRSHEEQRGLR

[24] = target: T5, DNA repair protein RAD52 homolog (Homo sapiens, UniProt P43351); format: functional, biochemical
T5 sequence (P43351 whole entry): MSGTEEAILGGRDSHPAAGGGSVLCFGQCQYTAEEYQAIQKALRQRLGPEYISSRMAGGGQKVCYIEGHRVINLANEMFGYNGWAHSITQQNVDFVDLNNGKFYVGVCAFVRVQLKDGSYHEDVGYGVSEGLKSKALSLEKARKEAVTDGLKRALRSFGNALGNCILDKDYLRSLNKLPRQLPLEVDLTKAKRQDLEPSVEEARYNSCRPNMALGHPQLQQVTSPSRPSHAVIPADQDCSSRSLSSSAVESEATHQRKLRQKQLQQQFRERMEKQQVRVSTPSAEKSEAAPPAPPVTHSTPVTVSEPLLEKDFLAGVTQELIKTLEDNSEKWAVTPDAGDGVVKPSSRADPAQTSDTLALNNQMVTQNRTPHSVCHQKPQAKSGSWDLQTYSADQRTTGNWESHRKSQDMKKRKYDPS

Sequence of FAD-linked sulfhydryl oxidase ALR (P55789 whole entry, the tested form may be a part): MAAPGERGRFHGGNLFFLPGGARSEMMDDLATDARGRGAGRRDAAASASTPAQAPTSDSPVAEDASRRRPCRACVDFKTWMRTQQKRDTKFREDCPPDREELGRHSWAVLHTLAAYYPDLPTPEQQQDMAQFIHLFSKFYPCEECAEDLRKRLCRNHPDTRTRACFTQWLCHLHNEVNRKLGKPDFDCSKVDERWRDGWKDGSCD

Cc1ccc(S(=O)(=O)c2cc(Nc3ccccc3)ccc2O)cc1
active: IC50 [1] 48.9 µM | CC50 [2] 100 µM

O=S(=O)(c1ccccc1Cl)N1CCCC1c1nc(-c2ccc(Cl)cc2)no1 (configuration not stated)
active: AC50 [3] 1.99 µM | AC50 [4] 14.8 µM | AC50 [5] 60.9 µM

COc1ccc(-c2c[nH]nc2N)c(OC)c1
active: AC50 [3] 3.7 µM | AC50 [6] 411 nM | AC50 [7] 32.5 µM | AC50 [4] 4.98 µM | AC50 [5] 20 µM

COc1cc(OC)cc(C(=O)NNC(=O)C2CCCC2)c1
> 150 µM (not active): EC50 (BJ [8]) | EC50 (BJ [9]) | EC50 (BJ [10]) | EC50 [11]

O=c1c(Cl)c(Cl)cnn1Cc1nnc(-c2ccc(Cl)cc2)o1
active: AC50 [13] 7.33 µM | EC50 [14] 2.02 µM | AC50 [15] 8.01 µM | AC50 [16] 30.9 µM | EC50 (Protein RecA) 2.95 µM | AC50 [17] 7.83 µM | AC50 [18] 8.16 µM | AC50 [20] 25.3 µM | AC50 [21] 9.97 µM | EC50 [22] 1.15 µM
> 120 µM (not active): EC50 [12] | EC50 [19] | EC50 (H4)

C=CCN(C(=O)C1CC(=O)N(C2CCCC2)C1)c1nc(-c2ccc(S(C)(=O)=O)cc2)cs1 (configuration not stated)
inactive: AC50 [15] > 52 µM
active: AC50 [13] 36.7 µM | AC50 [16] 41.5 µM | AC50 [18] 30.1 µM | AC50 [20] 25.8 µM

CN(C)c1ccc2c(c1)C(=NO)c1ccccc1-2
active: IC50 [1] 33.5 µM | CC50 [2] 100 µM

C[N+](C)(C)CCC(=O)N1C/C(=C/c2ccccc2)C(=O)/C(=C\c2ccccc2)C1
active: IC50 [1] 128 µM | CC50 [2] 100 µM

CN1CCCN(c2cc(-c3ccc4ccccc4c3)nc3ccnn23)CC1
active: AC50 [23] 8.49 µM | AC50 [24] 1.57 µM

C[C@@H]1CNC(=O)c2c(C(=O)N(C)Cc3ccccc3)ncn21
active: AC50 [3] 1.86 µM | AC50 [7] 4.8 µM | AC50 [4] 3.68 µM | AC50 [5] 3.39 µM
